Target: T1, Cytochrome P450 (CYP) 1A2 (Homo sapiens, UniProt P05177)
T1 sequence (P05177 2-516): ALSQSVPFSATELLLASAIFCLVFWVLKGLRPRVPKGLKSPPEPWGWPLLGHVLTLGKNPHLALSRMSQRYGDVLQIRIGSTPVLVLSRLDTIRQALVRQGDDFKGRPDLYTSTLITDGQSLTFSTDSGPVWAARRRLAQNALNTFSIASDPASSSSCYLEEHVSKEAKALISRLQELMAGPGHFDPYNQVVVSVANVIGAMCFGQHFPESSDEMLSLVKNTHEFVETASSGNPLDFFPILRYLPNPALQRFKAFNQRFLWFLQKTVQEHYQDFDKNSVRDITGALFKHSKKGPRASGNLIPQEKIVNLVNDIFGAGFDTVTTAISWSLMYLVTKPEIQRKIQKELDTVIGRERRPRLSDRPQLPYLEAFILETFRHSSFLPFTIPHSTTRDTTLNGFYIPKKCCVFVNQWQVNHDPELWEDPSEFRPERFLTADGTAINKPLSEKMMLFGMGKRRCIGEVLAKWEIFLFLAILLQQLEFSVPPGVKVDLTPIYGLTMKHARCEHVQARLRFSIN
Experiment: 7-ethoxyresorufin O-deethylase fluorescence inhibition assay
Format: biochemical

Compound | IC50
CC(C)(C)c1cc(=S)ss1 [TBD, 5-tert-butyl-3H-1,2-dithiole-3-thione] | ~12.8 µM
Cc1c(-c2cnccn2)ssc1=S [OLT, 4-methyl-5-pyrazinyl-3H-1,2-dithiole-3-thione] | ~0.2 µM

From publication PMC2650797 (Carcinogenesis, 2009)
